Laboratory results reported in patent publication US20240269320A1, “EXTENDED RELEASE DRUG DELIVERY SYSTEM FOR OCULAR DRUGS AND METHODS OF USE” (Eyedea Bio, LLC, priority 2021, published 2024).
“Also recorded” adds a separate entry of the source. Like-named read-outs stand apart in the source and are kept apart here. Blank lines part the entries; values can stand above or below the compound they belong to. Non-standard residues stand in square brackets, D forms with d. Residues, ends and D or L forms follow the SMILES beside them. *: point of attachment. Dmt = Cc1cc(O)cc(C)c1C[C@H](N)C(=O)O; X1 = CCCCCCCCCCCCCCCCCCO*

Assays:
[1] = In vivo kinetics after intravitreal injection of bolus implant in rabbit eyes (LC/MS, retina); details: for residual drug in recovered bolus/implants: bolus formulation of native peptide
[2] = Sunitinib malate bio-erodible tube implant, drug levels in retina tissue of rabbits; format: in vivo, rabbit
Text: In another example, formulations of the hydrophilic small molecule sunitinib malate in the multiphasic colloidal suspension were developed (FIGS. 20-22). […] Complexation of sunitinib to selected complexation agents was visually confirmed by admixture and pulldown of sunitinib-complex particulates, which was confirmed since by the yellow-orange color of particulates (sunitinib has orange coloration) (FIG. 21).
In another example, formulations of the hydrophilic small molecule sunitinib malate in the multiphasic colloidal suspension were developed. […] Complexation of sunitinib to selected complexation agents was visually confirmed by admixture and pulldown of sunitinib-complex particulates, which was confirmed since by the yellow-orange color of particulates (sunitinib has orange coloration). Formulations of sunitinib with two-phase release kinetics in a bio-erodible tube formulation of sunitinib multiphasic colloidal suspension were designed and manufactured. […] Alteration of the ratio of sunitinib-complex particulates reduced the amount of drug released during initial burst and lowered the steady state release.

[3] = test system: carboxyesterase; experiment: Cleavage of prodrug ester bond by carboxyesterase in vitro; format: in vitro ADME; details: 37° C., carboxyesterase 0.1 μg/mL
Experimental: One specific example of EY005-prodrug includes EY005-stearyl (depicted in FIG. 27A), wherein EY005 is linked via ester bond to stearyl alcohol, one member from the group of long-chain saturated fatty alcohols. On cleavage of the ester bond, the prodrug EY005-stearyl releases the EY005 MTT. […] Upon addition of EY005-stearyl prodrug to phosphate-buffered saline solution at 37° C. without esterase, the ester bond of the EY005-stearyl prodrug cleaves more slowly (˜36 hours) by hydrolysis (FIG. 28C).
EY005-stearyl was incubated at 37° C. in vitro with carboxyesterase (0.1 μg/mL), to simulate the ocular physiologic environment and the type of esterase that is readily abundant within the vitreous. […] Upon addition of EY005-stearyl prodrug to phosphate-buffered saline solution at 37° C. without esterase, the ester bond of the EY005-stearyl prodrug cleaves more slowly by hydrolysis (FIG. 28C).
In some examples of prodrugs, cleavage and release of the free API can be assessed in an in vitro release assay, wherein the prodrug is incubated in a solution containing carboxyesterase (or other natural or synthetic esterase), isolated vitreous recovered from animal (e.g., pig, rabbit, etc.), or isolated vitreous recovered from human donor, at […], […], or other temperatures. […]

[4] = In vitro to in vivo correlation of fluocinolone acetonide release, rabbit eyes; details: formulations in multiphasic colloidal suspension
Experimental: Properties of Kd and binding capacity were calculated for each FA-complex particulate, in dispersal medium (FIG. 15). […] FIG. 16B illustrates other formulations, wherein varying the ratio of drug-complex particulates altered the kinetics of release, as the proportion of complexation agent (KET) with higher avidity (Kd) was increased across the formulations, for a given payload of FA.
The depicted curves reflect in vitro release profiles, while the individual colored points, circled, represent in vivo release data from rabbit eyes.

[5] = flowable bolus implant, multiple time points

Compound: Cc1cc(O)cc(C)c1C[C@H](NC(=O)[C@H](N)CCCNC(=N)N)C(=O)N[C@@H](CCCCN)C(=O)N[C@@H](Cc1ccccc1)C(=O)O [EY005, H-d-Arg-DMT-Lys-Phe] (H-[dR][Dmt]KF-OH; C-terminus assumed)
time beyond which no detectable tissue levels ([1]; bolus formulation of native API administered into the vitreous): ≤ 21 days
residual drug in recovered bolus/implants ([1]; rabbits, listed as EY005 native peptide): Recovered implants contained no EY005 native peptide
residual drug in recovered bolus/implants ([1]; rabbits, listed as native API): no residual drug in the recovered bolus
tissue concentrations ([1]; by week 3.5, identical bolus formulation, rabbits): nearly undetectable

Compound: CCCCCCCCCCCCCCCCCCOC(=O)[C@H](Cc1ccccc1)NC(=O)[C@H](CCCCN)NC(=O)[C@H](Cc1c(C)cc(O)cc1C)NC(=O)[C@H](N)CCCNC(=N)N [EY005-stearyl, H-d-Arg-DMT-Lys-Phe(O)-stearyl] (H-[dR][Dmt]KF-X1)
cleavage of the prodrug ester bond, releasing EY005 (HPLC) [3]: rapid cleavage of the prodrug ester bond

Now from value to compound, other results behind:

drug levels in retina tissue ([2]; low and high dose implants, multiple time points): detectable drug levels in retina tissue
Compound: CCN(CC)CCNC(=O)c1c(C)[nH]c(/C=C2\C(=O)Nc3ccc(F)cc32)c1C [sunitinib malate]
release kinetics (pharmacokinetics) and tissue levels of tube formulation ([2]; bio-erodible tube formulation): produced desired tissue levels and durability of release; also recorded: two-phase release with high initial burst, followed by steady-state release

correlation between drug release in vitro and in vivo (retina tissue levels) [4]: strong correlation
correlation between drug release in vitro and in vivo (retina tissue levels) ([4]; listed as fluocinolone acetonide): good in vitro to in vivo correlation
Compound: CC1(C)O[C@@H]2C[C@H]3[C@@H]4C[C@H](F)C5=CC(=O)C=C[C@]5(C)[C@@]4(F)[C@@H](O)C[C@]3(C)[C@]2(C(=O)CO)O1 [FA, fluocinolone acetonide]

drug levels in retina tissue [5]: detectable drug levels in retina tissue
Compound: CNC(=O)c1ccccc1Sc1ccc2c(/C=C/c3ccccn3)n[nH]c2c1 [axitinib]
